According to patent US20240342292A1, “Compounds for the Degradation of EGFR Kinase” (BeiGene Switzerland GmbH, priority 2021, published 2024):

How the values were obtained:
[1] = target: T1, L858R/T790M/C797S EGFR (Homo sapiens, UniProt P00533, C797S/L858R/T790M); test: EGFR degradation HTRF assay in H1975-clone #25 (LTC) cells; assay type: cell-based; conditions: 16h treatment; for DC50: H1975 # 25-LTC (L858R/T790M/C797S), HTRF; for Dmax: NCI-H1975, H1975 # 25-LTC (L858R/T790M/C797S), maximum percentage of degradation
T1 construct: expressed in transfected cells; host or cells: H1975 clone #25 (lentiviral over-expression, endogenous EGFR knocked out by sgRNA)
T1 sequence (P00533 25-1210 T790M/C797S/L858R): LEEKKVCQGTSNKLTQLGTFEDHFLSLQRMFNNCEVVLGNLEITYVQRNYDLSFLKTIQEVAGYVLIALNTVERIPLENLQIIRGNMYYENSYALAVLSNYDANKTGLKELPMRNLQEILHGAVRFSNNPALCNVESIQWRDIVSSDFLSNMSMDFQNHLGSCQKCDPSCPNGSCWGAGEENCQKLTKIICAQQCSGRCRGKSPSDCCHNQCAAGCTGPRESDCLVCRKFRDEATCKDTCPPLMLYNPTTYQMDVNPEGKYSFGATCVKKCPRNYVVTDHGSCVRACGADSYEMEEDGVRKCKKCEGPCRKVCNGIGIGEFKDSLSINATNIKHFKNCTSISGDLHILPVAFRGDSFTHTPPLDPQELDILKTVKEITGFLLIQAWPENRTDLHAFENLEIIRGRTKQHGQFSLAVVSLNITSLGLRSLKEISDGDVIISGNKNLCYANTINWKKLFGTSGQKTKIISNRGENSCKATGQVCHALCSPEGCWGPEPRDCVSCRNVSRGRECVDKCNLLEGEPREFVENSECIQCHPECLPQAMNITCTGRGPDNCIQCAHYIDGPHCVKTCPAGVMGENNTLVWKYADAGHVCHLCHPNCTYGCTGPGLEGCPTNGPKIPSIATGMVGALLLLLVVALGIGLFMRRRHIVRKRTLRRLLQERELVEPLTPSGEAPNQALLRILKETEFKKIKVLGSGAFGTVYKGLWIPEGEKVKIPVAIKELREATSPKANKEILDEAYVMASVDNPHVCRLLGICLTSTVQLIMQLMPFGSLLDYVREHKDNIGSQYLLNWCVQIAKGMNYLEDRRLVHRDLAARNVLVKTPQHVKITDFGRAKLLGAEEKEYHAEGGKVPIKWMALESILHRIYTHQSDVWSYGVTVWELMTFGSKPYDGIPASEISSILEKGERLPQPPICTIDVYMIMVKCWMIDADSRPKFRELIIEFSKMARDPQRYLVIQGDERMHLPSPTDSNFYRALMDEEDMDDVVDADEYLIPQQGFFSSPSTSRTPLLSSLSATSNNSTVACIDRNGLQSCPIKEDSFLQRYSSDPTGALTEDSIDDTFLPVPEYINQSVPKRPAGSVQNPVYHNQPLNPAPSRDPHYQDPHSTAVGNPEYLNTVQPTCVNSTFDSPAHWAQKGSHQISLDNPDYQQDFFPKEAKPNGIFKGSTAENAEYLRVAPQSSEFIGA
Description: (§1) H1975-clone #28(Del19/T790M/C797S, or abbr: DTC), H1975-clone #23(Del19/C797S, or abbr: DC), H1975-clone #25(L858R/T790M/C797S, or abbr: LTC) and H1975-clone #8 (L858R/C797S, or abbr: LC). EGFR-Del19:T790M/C797S, EGFR-Del19/C797S, EGFR-L858R/T790M/C797S and EGFR-L858R/C797S were stably expressed in H1975 cell lines by lentivirus-mediated over-expression, respectively. The EGFR over-expressed cells then underwent knockout, in which the EGFR targeting sgRNA was designed to only target the endogenous EGFR copies and preserve the exogenous EGFR copies. Followed by the knockout, the edited H1975 cells were seeded in 96 well plates at the concentration of […], cultured for about 2 weeks to allow single clones formation. The formed clones were screened by DNA sequencing and whole exon sequencing analysis for the desired edition. H1975-clone #28, H1975-clone #23, H1975-clone #25 and H1975-clone #8 were finally confirmed as homozygous Del19/T790M/C797S EGFR, Dell9/C797S EGFR, L858R/T790M/C797S EGFR and L858R/C797S EGFR clones, respectively.
(§2) H1975-#25, H1975-#28, H1975-#23 and H1975-#8 cells are treated with compounds diluted in 0.2% DMSO cell culture medium on day 2, incubate for 16h, 37° C., 5% CO2. the final concentration of compounds in all assay is start with 10 uM, 5-fold dilution, total 8 doses were included.
(§3) After 16h treatment, add HTRF lysis buffer to each well; seal the plate and incubate 1 hour at room temperature on a plate shaker; Once the cells are lysed, 16 μL of cell lysate are transferred to a PE 384-well HTRF detection plate; 4 μL of pre-mixed HTRF antibodies are added to each well; Cover the plate with a plate sealer, spin 1000 rpm for 1 min, Incubate overnight at room temperature; Read on BMG PheraStar with HTRF protocol (337 nm-665 nm-620 nm).
(§4) The IC50 (DC50) value of a compound can be obtained by fitting the following equation
(§5) Y=Bottom+(TOP−Bottom)/(1+((IC50/X)^hillslope))
(§6) Wherein, X and Y are known values, and IC50, Hillslope, Top and Bottom are the parameters obtained by fitting with software. Y is the inhibition percentage (calculated from the equation), X is the concentration of the compound: IC50 is the concentration of the compound when the 50% inhibition is reached. The smaller the IC50 value is, the stronger the inhibitory ability of the compound is. Vice versa, the higher the IC50 value is, the weaker the ability the inhibitory ability of the compound is: Hillslope represents the slope of the fitted curve, generally around 1*; Bottom represents the minimum value of the curve obtained by data fitting, which is generally 0%±20%; Top represents the maximum value of the curve obtained by data fitting, which is generally 100%±20%. The experimental data were fitted by calculating and analyzing with Dotmatics data analysis software.

[2] = tested on: Del19/T790M/C797S EGFR; test: EGFR degradation HTRF assay in H1975-clone #28 (DTC) cells; assay type: cell-based; conditions: H1975 # 28 DTC (Del19/T790M/C797S), 16h treatment; for DC50: HTRF; for Dmax (%): maximum percentage of degradation
Description: as §1, §2, §3, §4, §5, §6

DC50 [1] [nM]	Dmax [1] [%]	DC50 [2] [nM]	Compound	Dmax (%) [2] [%]
0.9	89	0.7	Cc1cc2cc(n1)-c1cnn(C)c1OCCC[C@@H](C)CN1/C(=N/C2=O)Nc2ccc(CN3CCC4(CC3)CN(C(=O)[C@@H]3CCN(c5cc(F)c([C@H]6CCC(=O)NC6=O)c(F)c5)C3)C4)cc21 [Example 20, (R)-3-(2,6-difluoro-4-((R)-3-(7-(((R,E)-1^1,2^6,7-trimethyl-3-oxo-5^2,5^3-dihydro-1^1H,5^1H-li-oxa-4-aza-5(2,1)-benzo[d]imidazola-2(2,4)-pyridina-1(4,5)-pyrazolacycloundecaphane-5^6-yl)methyl)-2,7-diazaspiro[3.5]nonane-2-carbonyl)pyrrolidin-1-yl)phenyl)piperidine-2,6-dione]	79.0
2.3	91.8	2.1	Cc1cc2cc(n1)-c1cnn(C)c1OCCC[C@@H](C)CN1/C(=N/C2=O)Nc2ccc(CN3CCC4(CC3)CN(CCc3cc(F)c([C@H]5CCC(=O)NC5=O)c(F)c3)C4)cc21 [Example 23, (R)-3-(2,6-difluoro-4-(2-(7-(((R,E)-1^1,2^6,7-trimethyl-3-oxo-5^2,5^3-dihydro-1^1H,5^1H-11-oxa-4-aza-5(2,1)-benzo[d]imidazola-2(2,4)-pyridina-1(4,5)-pyrazolacycloundecaphane-5^6-yl)methyl)-2,7-diazaspiro[3.5]nonan-2-yl)ethyl)phenyl)piperdine-2,6-dione]	78.0
2	93.7	2.4	Cc1cc2cc(n1)-c1cnn(C)c1OCCC[C@@H](C)CN1/C(=N/C2=O)Nc2ccc(CN3CCC4(CC3)CN(C(=O)[C@H]3CN(c5cc(F)c([C@H]6CCC(=O)NC6=O)c(F)c5)CC3(C)C)C4)cc21 [Example 26, (R)-3-(4-((R)-3,3-dimethyl-4-(7-(((R,E)-1^1,2^6,7-trimethyl-3-oxo-5^2,5^3-dihydro-1^1H,5^1H-11-oxa-4-aza-5(2,1)-benzo[d]imidazola-2(2,4)-pyridina-(4,5)-pyrazolacycloundecaphane-5^6-yl)methyl)-2,7-diazaspiro[3.5]nonane-2-carbonyl)pyrrolidin-1-yl)-2,6-difluorophenyl)piperidine-2,6-dione]	81.2
2.92	82	1.48	Cc1cc2cc(n1)-c1cnn(C)c1OCCC[C@@H](C)CN1/C(=N/C2=O)Nc2ccc(CN3CCN(C(=O)[C@@H]4CCN(c5cc(F)c([C@H]6CCC(=O)NC6=O)c(F)c5)C4)CC3)c(F)c21 [Example 59, (R)-3-(2,6-difluoro-4-((R)-3-(4-(((R,E)-5^7-fluoro-1^1,2^6,7-trimethyl-3-oxo-5^2,5^3-dihydro-1^1H,5^1H-11-oxa-4-aza-5(2,1)-benzo[d]imidazola-2(2,4)-pyridina-1(4,5)-pyrazolacycloundecaphane-5^6-yl)methyl)piperazine-1-carbonyl)pyrrolidin-1-yl)phenyl)piperidine-2,6-dione]	78.58
3.13	76.8	1.51	Cc1cc2cc(n1)-c1c(C(F)F)nn(C)c1OCCC[C@@H](C)CN1/C(=N/C2=O)Nc2ccc(CN3CCN(C(=O)C4CN(c5cc(F)c([C@H]6CCC(=O)NC6=O)c(F)c5)C4)CC3)cc21 [Example 64, (R)-3-(4-(3-(4-(((R,E)-13-(difluoromethyl)-1^1,2^6,7-trimethyl-3-oxo-5^2,5^3-dihydro-1^1H,5^1H-11-oxa-4-aza-5(2,1)-benzo[d]imidazola-2(2,4)-pyridina-1(4,5)-pyrazolacycloundecaphane-5^6-yl)methyl)piperazine-1-carbonyl)azetidin-1-yl)-2,6-difluorophenyl)piperidine-2,6-dione]	80.65
0.9	84.4	0.7	Cc1cc2cc(n1)-c1cnn(C)c1OCCC[C@@H](C)CN1/C(=N/C2=O)Nc2ccc(CN3CCN(C(=O)C4CN(c5cc(F)c([C@H]6CCC(=O)NC6=O)c(F)c5)C4)CC3)cc21 [Example 76, (R)-3-(2,6-difluoro-4-(3-(4-(((R,E)-1^1,2^6,7-trimethyl-3-oxo-5^2,5-dihydro-1^1H,5^1H-11-oxa-4-aza-5(2,1)-benzo[d]imidazola-2(2,4)-pyridina-1(4,5)-pyrazolacycloundecaphane-5^6-yl)methyl)piperazine-1-carbonyl)azetidin-1-yl)phenyl)piperidine-2,6-dione]	75.8
1.7	83.4	2.2	Cc1cc2cc(n1)-c1cnn(C)c1OCCC[C@@H](C)CN1/C(=N/C2=O)Nc2ccc(CN3CCN(C(=O)[C@H]4CN(c5cc(F)c([C@H]6CCC(=O)NC6=O)c(F)c5)CC4(C)C)CC3)cc21 [Example 77, (R)-3-(4-((R)-3,3-dimethyl-4-(4-(((R,E)-1^1,2^6,7-trimethyl-3-oxo-5^2,5^3-dihydro-1^1H,5^1H-11-oxa-4-aza-5(2,1)-benzo[d]imidazola-2(2,4)-pyridina-1(4,5)-pyrazolacycloundecaphane-5-yl)methyl)piperazine-1-carbonyl)pyrrolidin-1-yl)-2,6-difluorophenyl)piperidine-2,6-dione]	78.3
0.5	90.2	0.7	Cc1cc2cc(n1)-c1cnn(C)c1OCCC[C@@H](C)CN1/C(=N/C2=O)Nc2ccc(CN3CC4(C3)CN(C(=O)[C@@H]3CCN(c5cc(F)c([C@H]6CCC(=O)NC6=O)c(F)c5)C3)C4)cc21 [Example 78, (R)-3-(2,6-difluoro-4-((R)-3-(6-(((R,E)-1^1,2^6,7-trimethyl-3-oxo-5^2,5^3-dihydro-1^1H,5^1H-11-oxa-4-aza-5(2,1)-benzo[d]imidazola-2(2,4)-pyridina-1(4,5)-pyrazolacycloundecaphane-5^6-yl)methyl)-2,6-diazaspiro[3.3]heptane-2-carbonyl)pyrrolidin-1-yl)phenyl)piperidine-2,6-dione]	82.6
0.6	90.6	0.7	Cc1cc2cc(n1)-c1cnn(C)c1OCCC[C@@H](C)CN1/C(=N/C2=O)Nc2ccc(CN3CC4(C3)CN(C(=O)C3CN(c5cc(F)c([C@H]6CCC(=O)NC6=O)c(F)c5)C3)C4)cc21 [Example 79, (R)-3-(2,6-difluoro-4-(3-(6-(((R,E)-1^1,2^6,7-trimethyl-3-oxo-5^2,5^3-dihydro-1^1H,5^1H-11-oxa-4-aza-5(2, 1)-benzo[d]imidazola-2(2,4)-pyridina-1(4,5)-pyrazolacycloundecaphane-5^6-yl)methyl)-2,6-diazaspiro[3.3]heptane-2-carbonyl)azetidin-1-yl)phenyl)piperidine-2,6-dione]	82.2
0.8	87.5	0.8	Cc1cc2cc(n1)-c1cnn(C)c1OCCC[C@@H](C)CN1/C(=N/C2=O)Nc2ccc(CN3CC4(C3)CN(C(=O)[C@H]3CN(c5cc(F)c([C@H]6CCC(=O)NC6=O)c(F)c5)CC3(C)C)C4)cc21 [Example 80, (R)-3-(4-((R)-3,3-dimethyl-4-(6-(((R,E)-1^1,2^6,7-trimethyl-3-oxo-5^2,5^3-dihydro-1^1H,5^1H-11-oxa-4-aza-5(2,1)-benzo[d]imidazola-2(2,4)-pyridina-1(4,5)-pyrazolacycloundecaphane-5^6-yl)methyl)-2,6-diazaspiro[3.3]heptane-2-carbonyl)pyrrolidin-1-yl)-2,6-difluorophenyl)piperidine-2,6-dione]	87.0
